In ChEMBL document CHEMBL1201862, “PubChem BioAssay data set” (2004):
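Exposure lasted 48 hours, with cells grown in 96-well plates and compounds tested at five concentrations. GI50 = concentration required for 50% inhibition of growth.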 Activity calls are given as the source filed them. Rule as the data show it: active = GI50 up to about 1.1 µM and inactive = higher.

Key:
Experiment in all cases: DTP human tumour cell line panel, 48 h
HL-60 = system: HL-60
HOP-62 = system: HOP-62
SF-268 = system: SF-268
A498 = system: A498
MDA-MB-231 = system: MDA-MB-231
RXF 393 = system: RXF 393
Hs-578T = system: Hs-578T
HCT-116 = system: HCT-116
UO-31 = system: UO-31
SK-OV-3 = system: SK-OV-3
CAKI-1 = system: CAKI-1
NCI-H226 = system: NCI-H226
SF-295 = system: SF-295
Malme-3M = system: Malme-3M
NCI-H522 = system: NCI-H522
NCI/ADR-RES = system: NCI/ADR-RES
SW-620 = system: SW-620
MOLT-4 = system: MOLT-4
CCRF-CEM = system: CCRF-CEM
RPMI-8226 = system: RPMI-8226

Measured: GI50

Cc1ccc(S(=O)(=O)N/N=C2\CC3C4C=CC3C2C4)cc1 (centres undefined)
inactive: HL-60 > 100 µM | HOP-62 > 100 µM | SF-268 > 100 µM | A498 > 100 µM | MDA-MB-231 > 100 µM | RXF 393 > 100 µM | Hs-578T > 100 µM | HCT-116 > 100 µM | UO-31 21 µM | SK-OV-3 > 100 µM | CAKI-1 > 100 µM | NCI-H226 > 100 µM | SF-295 > 100 µM | Malme-3M > 100 µM | NCI-H522 > 100 µM | NCI/ADR-RES > 100 µM | SW-620 > 100 µM | MOLT-4 > 100 µM | CCRF-CEM > 100 µM

Cc1cccc2c(N)c3cccc(C(=O)NCCNCCN)c3nc12
inactive: HL-60 8.83 µM | A498 23.7 µM | MDA-MB-231 1.96 µM | RXF 393 12.6 µM | Hs-578T 1.24 µM | HCT-116 2.52 µM | UO-31 12.3 µM | SK-OV-3 26.9 µM | CAKI-1 3.8 µM | RPMI-8226 9.55 µM | SF-295 3.68 µM | Malme-3M 15.4 µM | NCI/ADR-RES 27.9 µM | SW-620 8.02 µM
active: HOP-62 0.533 µM | SF-268 0.0698 µM | NCI-H522 0.0826 µM | MOLT-4 0.0649 µM | CCRF-CEM 0.448 µM

COc1ccccc1NC(=S)N/N=C/c1c(C)n(C)n(-c2ccccc2)c1=O
inactive: HL-60 > 100 µM | HOP-62 53.3 µM | SF-268 45.1 µM | A498 71 µM | MDA-MB-231 > 100 µM | RXF 393 34.9 µM | Hs-578T 37.8 µM | HCT-116 > 100 µM | UO-31 > 100 µM | SK-OV-3 35.3 µM | CAKI-1 > 100 µM | RPMI-8226 > 100 µM | NCI-H226 82.4 µM | SF-295 59.3 µM | NCI/ADR-RES 21.1 µM | SW-620 91.8 µM | MOLT-4 41.5 µM | CCRF-CEM > 100 µM

CN1C(NCCO)=NS(=O)(=O)c2ccccc21
inactive: HL-60 > 100 µM | HOP-62 > 100 µM | SF-268 > 100 µM | A498 > 100 µM | MDA-MB-231 > 100 µM | RXF 393 > 100 µM | Hs-578T > 100 µM | HCT-116 > 100 µM | UO-31 > 100 µM | SK-OV-3 > 100 µM | CAKI-1 > 100 µM | NCI-H226 > 100 µM | SF-295 > 100 µM | NCI-H522 > 100 µM | NCI/ADR-RES > 100 µM | SW-620 > 100 µM | MOLT-4 > 100 µM | CCRF-CEM > 100 µM

COc1ccc(NC(=S)N/N=C(\C)c2nc3cccnc3[nH]2)cc1
inactive: HL-60 2.69 µM | HOP-62 7.5 µM | SF-268 4.04 µM | A498 14.3 µM | MDA-MB-231 5.9 µM | Hs-578T 19.6 µM | HCT-116 3.02 µM | UO-31 1.97 µM | SK-OV-3 13.5 µM | CAKI-1 3.96 µM | RPMI-8226 4.35 µM | NCI-H226 3.73 µM | SF-295 3.13 µM | Malme-3M 7.59 µM | NCI-H522 7.03 µM | NCI/ADR-RES 6.62 µM | SW-620 6.87 µM | MOLT-4 3.41 µM | CCRF-CEM 2.45 µM

C#CC(O)/C=C/CCCCCCC#CC/C=C\CC#CCCCCCC/C=C/C(O)C#C (centres undefined)
active: UO-31 0.264 µM | MOLT-4 0.111 µM | CCRF-CEM 0.255 µM
inactive: HL-60 1.77 µM | HOP-62 2.1 µM | SF-268 2.96 µM | A498 3.21 µM | MDA-MB-231 2.99 µM | RXF 393 14.1 µM | Hs-578T 5.9 µM | HCT-116 1.57 µM | SK-OV-3 18 µM | CAKI-1 2.29 µM | NCI-H226 5.32 µM | SF-295 13.9 µM | NCI/ADR-RES 2.55 µM | SW-620 2.35 µM

O=C(/C=C/c1ccc(OCc2ccccc2)cc1)NCc1ccc(C(=O)NCCc2ccccc2)cc1
inactive: HOP-62 89.1 µM | SF-268 > 100 µM | A498 > 100 µM | MDA-MB-231 > 100 µM | RXF 393 64.1 µM | Hs-578T > 100 µM | HCT-116 > 100 µM | UO-31 > 100 µM | SK-OV-3 > 100 µM | CAKI-1 > 100 µM | NCI-H226 > 100 µM | SF-295 > 100 µM | Malme-3M > 100 µM | NCI-H522 > 100 µM | NCI/ADR-RES > 100 µM | SW-620 > 100 µM | CCRF-CEM 11.4 µM

Cc1ccsc1C(=O)C(CC(=O)c1cccs1)c1ccsc1 (centres undefined)
inactive: HOP-62 > 100 µM | SF-268 > 100 µM | A498 > 100 µM | MDA-MB-231 77.6 µM | RXF 393 > 100 µM | Hs-578T > 100 µM | HCT-116 16.1 µM | UO-31 54.1 µM | SK-OV-3 > 100 µM | CAKI-1 > 100 µM | NCI-H226 > 100 µM | SF-295 > 100 µM | Malme-3M > 100 µM | NCI-H522 > 100 µM | NCI/ADR-RES 37.7 µM | SW-620 > 100 µM | MOLT-4 77.3 µM | CCRF-CEM > 100 µM

CCCCCCCCCCCCCCCC(=O)ON1C(=S)NC(C)(c2ccccc2)C1=S (centres undefined)
inactive: HL-60 94.6 µM | HOP-62 > 100 µM | SF-268 73.6 µM | A498 > 100 µM | MDA-MB-231 > 100 µM | RXF 393 > 100 µM | Hs-578T > 100 µM | HCT-116 > 100 µM | UO-31 > 100 µM | SK-OV-3 > 100 µM | CAKI-1 > 100 µM | RPMI-8226 > 100 µM | NCI-H226 87.9 µM | SF-295 2.11 µM | Malme-3M > 100 µM | NCI/ADR-RES > 100 µM | MOLT-4 33.5 µM | CCRF-CEM 36.4 µM

CC(C)(C)c1ccc(-c2nc3ccc(Cl)cc3c(=O)o2)cc1
inactive: HL-60 19.4 µM | HOP-62 20.9 µM | SF-268 22 µM | A498 23.4 µM | RXF 393 39.1 µM | Hs-578T 30.5 µM | HCT-116 15.6 µM | UO-31 21.2 µM | SK-OV-3 18.4 µM | CAKI-1 25.4 µM | RPMI-8226 19.6 µM | SF-295 13 µM | Malme-3M 16.6 µM | NCI-H522 12.7 µM | NCI/ADR-RES 22.7 µM | SW-620 26.4 µM | MOLT-4 16.9 µM | CCRF-CEM 14.8 µM
active: MDA-MB-231 0.324 µM

COc1ccc(OC)c(CC(=O)c2ccc(O)c(C(=O)NCCc3ccc(F)cc3)c2)c1
active: RXF 393 1.09 µM
inactive: HL-60 2.16 µM | HOP-62 1.54 µM | SF-268 4.13 µM | A498 12.2 µM | MDA-MB-231 4.74 µM | Hs-578T 3.1 µM | UO-31 4.76 µM | SK-OV-3 2.69 µM | CAKI-1 3.26 µM | RPMI-8226 4.1 µM | SF-295 2.82 µM | Malme-3M 2.2 µM | NCI-H522 2.79 µM | NCI/ADR-RES 2.21 µM | SW-620 4.18 µM | MOLT-4 5.04 µM
